Source: US20210369853A1, “TARGETED PROTEASE DEGRADATION PLATFORM” (EUBULUS BIOTHERAPEUTICS INC., priority 2018, published 2021)
Like-named read-outs stand apart in the source and are kept apart here.

Experiments:
Type in all cases: cell-based
[1] = tested on: Human Glioma Cells U-87 MG; experiment: Cell proliferation experiment (Alarm blue, 72 h, EC50); settings: Homo sapiens; U-87MG cells
How it was run: (§1)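 Log-phase cells, passaged at least 2 generations, were seeded in 96-well plates and exposed to test compound in complete medium as a 5-fold dilution series in duplicate for 72 h. Fluorescence was read by Alamar blue and EC50 fitted to a four-parameter curve (Min, Max, Slope).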

[2] = tested on: Human Acute Myelomonocytic Leukemia HL-60; experiment: as above; settings: HL-60 cells
How it was run: as §1

[3] = tested on: Human Small Cell Lung Cancer NCI-H82; experiment: as above; settings: Homo sapiens, NCI-H82; NCIH82 cells
How it was run: as §1

[4] = tested on: Human Monocytic Leukemia THP-1; experiment: as above; settings: THP-1 cells
How it was run: as §1

[5] = tested on: Human cervical adenocarcinoma cells Hela; experiment: as above; settings: Homo sapiens
How it was run: as §1

[6] = tested on: Human Monocytic Leukemia MV4-11; experiment: as above; settings: Homo sapiens
How it was run: as §1

[7] = tested on: Human Breast Cancer MDA-MB-231; experiment: as above; settings: Homo sapiens; MDA-MB-231 cells
How it was run: as §1

[8] = tested on: Human Acute Lymphoblastic Leukemia Cells MOLT-4; experiment: as above; settings: MOL4-4 cells
How it was run: as §1

[9] = tested on: Human Colon Cancer HT-29; experiment: as above; settings: Homo sapiens; HT-29 cells
How it was run: as §1

[10] = tested on: Human Colon Cancer HCT-116; experiment: as above; settings: Homo sapiens, HCT-116; HCT116 cells
How it was run: as §1

[11] = target: T1, PLK1 (Homo sapiens, UniProt P53350); experiment: Western blot, protein degradation (DC50)
T1 construct: endogenous in cells
How it was run: (§2)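 Cells treated with compound, lysed in RIPA and resolved by SDS-PAGE (4%-12%); PVDF blots probed with primary antibody overnight at 4° C, then secondary antibody, and developed with ECL. Band intensities quantified by densitometry to give degradation.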

[12] = target: T2, BRD4 (Homo sapiens, UniProt O60885); experiment: Western blot, protein degradation (DC50)
T2 construct: endogenous in cells
How it was run: as §2

[13] = tested on: PBMC; experiment: Cell proliferation experiment (EC50), PBMC
[14] = tested on: HUVEC; experiment: Cell proliferation experiment (EC50), HUVEC; settings: Homo sapiens
[15] = tested on: Daudi; experiment: Cell proliferation experiment (EC50), Daudi; settings: Homo sapiens; Daudi cells

T1 sequence (P53350 whole entry): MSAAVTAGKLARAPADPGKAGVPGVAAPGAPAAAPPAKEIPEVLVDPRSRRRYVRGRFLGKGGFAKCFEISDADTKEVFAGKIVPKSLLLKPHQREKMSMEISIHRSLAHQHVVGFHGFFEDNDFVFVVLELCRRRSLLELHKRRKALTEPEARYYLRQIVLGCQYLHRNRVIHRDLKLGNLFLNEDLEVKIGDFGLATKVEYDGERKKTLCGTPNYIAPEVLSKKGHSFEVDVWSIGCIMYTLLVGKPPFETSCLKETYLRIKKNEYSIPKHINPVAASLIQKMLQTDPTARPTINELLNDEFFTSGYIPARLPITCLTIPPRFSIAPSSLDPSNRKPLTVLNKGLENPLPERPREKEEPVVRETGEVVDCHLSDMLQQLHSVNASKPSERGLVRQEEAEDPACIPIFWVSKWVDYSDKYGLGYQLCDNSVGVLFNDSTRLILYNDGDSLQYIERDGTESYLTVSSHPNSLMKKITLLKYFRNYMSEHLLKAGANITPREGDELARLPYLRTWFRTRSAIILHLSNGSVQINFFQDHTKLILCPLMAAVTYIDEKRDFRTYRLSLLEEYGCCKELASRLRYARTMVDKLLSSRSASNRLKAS

| SMILES | EC50 [1] | EC50 [3] | EC50 [9] | EC50 ([6]; MV4-11, MV4;11 cells) | EC50 [15] | other results |
| --- | --- | --- | --- | --- | --- | --- |
| CC[C@@H]1C(=O)N(C)c2cnc(Nc3ccc(C(=O)NCc4cn(CCNCCOCC(=O)Nc5cccc6c5CN(C5CCC(=O)NC5=O)C6=O)nn4)cc3OC)nc2N1Cc1ccc(Cl)s1 (some centres unmarked) [UB-180720] | 100 to 1000 nM | 100 to 1000 nM | 100 to 1000 nM |  |  | EC50 [2]: 100 to 1000 nM; EC50 [4]: 100 to 1000 nM; EC50 [5]: 100 to 1000 nM; EC50 ([6]; MV4;11 cells): < 10 nM; EC50 [7]: 100 to 1000 nM; EC50 [8]: 100 to 1000 nM; EC50 [10]: 100 to 1000 nM; DC50 ([11]; 24 h, read-out: PLK1 DC50 (nM) (24 h)): < 10 nM; DC50 ([12]; 24 h, read-out: BRD4 DC50 (nM) (24 h)): < 10 nM |
| O=C1CCC(N2Cc3c(NC(=O)CCOCCOCCOCCNCCOCCNC(=O)[C@]4(Cc5cccc(Nc6nccs6)n5)CC[C@@H](Oc5cccc(Cl)c5F)CC4)cccc3C2=O)C(=O)N1 (some centres unmarked) [UB-180804] |  |  |  | 100 to 1000 nM |  | EC50 [2]: > 1000 nM; EC50 [13]: > 1000 nM; EC50 [14]: > 1000 nM |
| O=C1CCC(N2Cc3c(NC(=O)CNCCOCCN4CCN(CCNC(=O)[C@]5(Cc6cccc(Nc7nccs7)n6)CC[C@@H](Oc6cccc(Cl)c6F)CC5)CC4)cccc3C2=O)C(=O)N1 (some centres unmarked) [UB-180810] |  |  |  | 100 to 1000 nM |  | EC50 [10]: 100 to 1000 nM; EC50 [13]: > 1000 nM; DC50 ([11]; 6 h, read-out: PLK1 DC50 (6 h)): < 10 nM; EC50 [14]: > 1000 nM |
| CC[C@@H]1C(=O)N(C)c2cnc(Nc3ccc(C(=O)NCc4cn(CCN(C)CCC(=O)Nc5cccc6c5CN(C5CCC(=O)NC5=O)C6=O)nn4)cc3OC)nc2N1C1CCCC1 (some centres unmarked) [UB-180848] | 100 to 1000 nM | 100 to 1000 nM | 100 to 1000 nM | < 10 nM | 100 to 1000 nM |  |
| CC[C@@H]1C(=O)N(C)c2cnc(Nc3ccc(C(=O)NC4CCN(CCOCCN(CCO)CC(=O)Nc5cccc6c5CN(C5CCC(=O)NC5=O)C6=O)CC4)cc3OC)nc2N1C1CCCC1 (some centres unmarked) [UB-180849] | 100 to 1000 nM | 100 to 1000 nM | 100 to 1000 nM | 100 to 1000 nM | 100 to 1000 nM |  |
| CC[C@@H]1C(=O)N(C)c2cnc(Nc3ccc(C(=O)NCCCC[C@@H](N)C(=O)Nc4cccc5c4CN(C4CCC(=O)NC4=O)C5=O)cc3OC)nc2N1C1CCCC1 (some centres unmarked) [UB-180855] | 100 to 1000 nM | 100 to 1000 nM | 100 to 1000 nM | 100 to 1000 nM | 100 to 1000 nM |  |

More lines, main results first:

| EC50 [1] | EC50 [3] | EC50 [9] | EC50 ([6]; MV4-11, MV4;11 cells) | EC50 [15] | SMILES | other results |
| --- | --- | --- | --- | --- | --- | --- |
| 100 to 1000 nM | 100 to 1000 nM | 100 to 1000 nM | < 10 nM | 100 to 1000 nM | CC[C@@H]1C(=O)N(C)c2cnc(Nc3ccc(C(=O)NCCOCCOCCOCCOCCNCC#Cc4cccc5c4CN(C4CCC(=O)NC4=O)C5=O)cc3OC)nc2N1C1CCCC1 (some centres unmarked) [UB-180844] | DC50 ([11]; 6 h, read-out: PLK1 DC50 (6 h)): 10 to 100 nM; DC50 ([12]; 6 h, read-out: BRD4 DC50 (6 h)): 10 to 100 nM |
| 100 to 1000 nM | 100 to 1000 nM | 100 to 1000 nM | < 10 nM | 100 to 1000 nM | CC[C@@H]1C(=O)N(C)c2cnc(Nc3ccc(C(=O)NCCOCCOCCNCC#Cc4cccc5c4CN(C4CCC(=O)NC4=O)C5=O)cc3OC)nc2N1C1CCCC1 (some centres unmarked) [UB-180845] | DC50 ([12]; 6 h, read-out: BRD4 DC50 (6 h)): < 10 nM |
| 100 to 1000 nM | 100 to 1000 nM | 100 to 1000 nM | < 10 nM | 100 to 1000 nM | CC[C@@H]1C(=O)N(C)c2cnc(Nc3ccc(C(=O)NCCOCCOCCOCCNCC#Cc4cccc5c4CN(C4CCC(=O)NC4=O)C5=O)cc3OC)nc2N1C1CCCC1 (some centres unmarked) [UB-180846] | DC50 ([12]; 6 h, read-out: BRD4 DC50 (6 h)): 10 to 100 nM |
| 100 to 1000 nM | 100 to 1000 nM | 100 to 1000 nM | 100 to 1000 nM | 100 to 1000 nM | CC[C@@H]1C(=O)N(C)c2cnc(Nc3ccc(C(=O)NCCOCCOCCOCCNCCCc4cccc5c4CN(C4CCC(=O)NC4=O)C5=O)cc3OC)nc2N1C1CCCC1 (some centres unmarked) [UB-180847] |  |
| 100 to 1000 nM | 100 to 1000 nM | 100 to 1000 nM | 100 to 1000 nM | 100 to 1000 nM | CC[C@@H]1C(=O)N(C)c2cnc(Nc3ccc(C(=O)NCCC[C@@H](N)C(=O)Nc4cccc5c4CN(C4CCC(=O)NC4=O)C5=O)cc3OC)nc2N1C1CCCC1 (some centres unmarked) [UB-180856] |  |
